From patent publication EP2646421B1, “7-NITRO-5-PHENYL-1-(PYRROLIDIN-1-YLMETHYL)-1H-BENZO[E][1,4]DIAZEPIN-2(3H)-ONE AND OTHER BENZODIAZEPINE DERIVATIVES” (Pignataro, Giuseppe, priority 2010, dated 2012)
“Also recorded” adds a separate entry of the source.

Tests used:
[1] = target: T1, NCX1 L808F (Canis lupus familiaris, UniProt P23685, L840F); assay: NCX1 point mutant activity (45Ca2+ uptake and Fura-2); format: cell-based; conditions: single mutation, functional exchanger
T1 construct: expressed in transfected cells
T1 sequence (P23685 33-970 L840F): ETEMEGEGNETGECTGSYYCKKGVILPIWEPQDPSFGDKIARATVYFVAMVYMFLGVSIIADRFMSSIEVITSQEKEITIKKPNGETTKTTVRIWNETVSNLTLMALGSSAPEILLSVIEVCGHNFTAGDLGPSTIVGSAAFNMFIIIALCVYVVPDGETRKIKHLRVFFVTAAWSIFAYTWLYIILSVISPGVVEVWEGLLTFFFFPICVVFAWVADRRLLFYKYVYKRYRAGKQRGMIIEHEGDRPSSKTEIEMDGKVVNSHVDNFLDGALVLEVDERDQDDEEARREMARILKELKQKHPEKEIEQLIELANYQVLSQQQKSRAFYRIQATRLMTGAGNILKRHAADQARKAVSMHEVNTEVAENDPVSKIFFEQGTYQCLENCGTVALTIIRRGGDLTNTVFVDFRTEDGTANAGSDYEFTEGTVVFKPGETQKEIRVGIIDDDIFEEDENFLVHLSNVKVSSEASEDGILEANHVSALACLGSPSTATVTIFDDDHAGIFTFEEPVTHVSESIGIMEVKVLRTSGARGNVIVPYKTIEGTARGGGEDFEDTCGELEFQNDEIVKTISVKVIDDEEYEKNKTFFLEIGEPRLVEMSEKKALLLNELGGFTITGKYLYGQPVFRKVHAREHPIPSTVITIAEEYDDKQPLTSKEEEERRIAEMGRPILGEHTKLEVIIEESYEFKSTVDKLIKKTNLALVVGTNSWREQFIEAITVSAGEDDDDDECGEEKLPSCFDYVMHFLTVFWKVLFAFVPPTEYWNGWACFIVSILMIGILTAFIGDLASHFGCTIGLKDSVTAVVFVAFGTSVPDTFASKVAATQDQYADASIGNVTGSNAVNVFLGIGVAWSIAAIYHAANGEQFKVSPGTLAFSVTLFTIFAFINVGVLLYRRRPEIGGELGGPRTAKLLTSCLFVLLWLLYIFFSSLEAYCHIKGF
Method: (§1) To identify the critical residues involved in drug sensitivity between NCX1 and NCX3 proteins, each residue in NCX1, in the regions α1 and α2, was substituted with the corresponding residue in NCX3.
(§2) All experiments aimed to identify the binding site of neurounina-1 were performed on BHK cells stably transfected with a single NCX chimera or mutant.
(§3) The activity of the Na^+/Ca^2+ exchanger was measured by means of ^45Ca^2+ radiotracer variations in the cytoplasm of cells exposed to a protocol stimulating the forward or the reverse mode of the antiporter. The BHK cells expressing each mutated or non-mutated NCX isoform were cultured in 12-well dishes and incubated in 145 mM NaCl for 10 minutes and then in a medium containing only 145 mM N-Methyl D-glucamine (NMDG) and 10 µM of ^45Ca^2+. This rapid substitution of the medium from a high level of Na^+ to another one without Na^+ allow the ^45Ca^2+ influx (reverse mode). Before the medium substitution cells was incubated with 1 mM ouabain, a Na^+/K^+ pump inhibitor, and 10 µM monensin, a ionophore for extracellular Na^+. […] The medium was removed and cells were subsequently lysed with 0.1 N NaOH and aliquots were taken to determine radioactivity and protein content.
(§4) Briefly, BHK cells wild type and/or BHK trasnsfected with NCX mutants, grown on glass coverslips, were loaded with Fura-2 acetoxymethyl ester (Fura-2AM) (10 µM) for 30 minutes at 37°C in normal Krebs solution containing the following (in mM): 5.5 KCI, 160 NaCl, 1.2 MgCl2, 1.5 CaCl2, 10 glucose, and 10 Hepes-NaOH, pH 7.4. […] Fura-2 fluorescence intensity was measured every 3 seconds. […] NCX activity was evaluated as Ca2+ uptake through the reverse mode by switching the normal Krebs medium containing thapsigargi (1µM) to Na^+-deficient NMDG+ medium (Na^+-free) containing (in mM): 5.5 KCI, 147 N-Methyl glucamine, 1.2 MgCl2, 1.5 CaCl2, 10 glucose, and 10 Hepes-NaOH (pH 7.4). All the results are presented as percentage of cytosolic Ca^2+ concentration increase above basal values and expressed as mean± S.E.M.

[2] = target: T2, NCX1 N124G (Canis lupus familiaris, UniProt P23685, N157G); assay: as above; format: cell-based; conditions: single mutation, functional exchanger
T2 construct: expressed in transfected cells
T2 sequence (P23685 33-970 N157G): as the sequence (P23685 33-970 L840F) above, with N125G, F808L counted along it
Method: as §1, §2, §3, §4

[3] = target: T3, NCX1 V117L (Canis lupus familiaris, UniProt P23685, V150L); assay: as above; format: cell-based; conditions: single mutation, functional exchanger
T3 construct: expressed in transfected cells
T3 sequence (P23685 33-970 V150L): as the sequence (P23685 33-970 L840F) above, with V118L, F808L counted along it
Method: as §1, §2, §3, §4

[4] = test system: BHK cells; assay: Cell viability by fluorescein diacetate / propidium iodide staining; format: cell-based, hamster; conditions: 10 µM, 24 hours
Description: Fluorescein diacetate (FDA) is an apolar ester that could cross plasmamembrane. […] The polar compound propidium-iodide (PI) can not cross an intact plasmamembrane, so this is a good marker of necrotic cells. Once PI enters into the cell, this compound interact with nuclear DNA and give a fluorescent red light. Consequently, in the same cellular population, it is possible to discriminate live cells from dead cells, because the last group are PI-positive. In PI/PDA experiments, BHK cells were firstly treated with 10 µM neurounina-1 for 24 hours and then incubated for 3 minutes, at 22°C, in a PBS solution containing fluorescein diacetate (FDA; Sigma) and propidium iodide (PI, Calbiochem, San Diego, CA, U.S.A.), at the concentrations of di 36 µM e 7 µM, respectively. At the end of the incubation, cells were washed with PBS and observed at the microscope.

O=C1CN=C(c2ccccc2)c2cc([N+](=O)[O-])ccc2N1CN1CCCC1 [neurounina-1, 7-nitro-5-phenyl-1-(pyrrolidin-1-ylmethyl)-1H-benzo[e][1,4]diazepin-2(3H)-one]
sensitivity of NCX1 mutant L808F [1]: insensible | sensitivity of NCX1 mutant N124G [2]: insensible | sensitivity of NCX1 mutant V117L [3]: insensible | cell viability [4]: did not show any toxic effect; also recorded: did not affect
